Test results published in patent US11845959B2, “Identification of factor that promotes human HSC self-renewal” (THE REGENTS OF THE UNIVERSITY OF CALIFORNIA, priority 2016, dated 2023).

System: human HSPC
Experiment: Flavopiridol treatment of human HSPC, HSPC expansion in culture (FACS, total HSPC expansion over time)
Assay type: cell-based
Details: 100 nM, similarly to MLLT3 overexpression
Text: We investigated whether an effect on transcription elongation by a different factor might change the effect. We determined that Treatment of human HSPC with Flavopiridol, a regulator of transcription elongation machinery, expands HSPC in culture.

## CN1CC[C@H](c2c(O)cc(O)c3c(=O)cc(-c4ccccc4Cl)oc23)[C@H](O)C1 [Flavopiridol]
  HSPC expansion in culture: sustained HSPC expansion in culture
